In patent EP0435381B1, “Antipicornaviral pyridazinamines” (priority 1989, dated 1991):
In brackets after ≈: the same amount, converted by molar mass.

Tests used:
[1] = test system: HRV- 2,-29,-39,-85,-9,-15,-51, -59,-63,-89,-41; experiment: Picornavirus Minimal Inhibitory Concentration Test (cytopathic effect reduction assay), first panel of rhinoviruses; type: cell-based; conditions: Human rhinovirus sp., HeLa, read-out: Med₁
Method: (§1) Example 24: Picornavirus Minimal Inhibitory Concentration Test,
(§2) The Minimal Inhibitory Concentration of the compounds of the present invention against the Human Rhinovirus strains (HRV) -2,-9,-14,-15,-29,-39,-41,-42,-45,-51, -59,-63,-70,-72,-85,-86 and -89 was determined by a standard cytopathic effect reduction assay as follows. To each of the ninety six (96) wells of a microtiter 96 well tissue culture plate there was added 60 µl of an Ohio Hela cell maintenance medium [Eagle's Basal medium supplemented with 5% Foetal Calf Serum (FCS)]. To two wells there was added 60 µl of an appropriate starting dilution of a compound of formula (I) and two-fold dilutions were made to cover a wide range of compound concentrations. Subsequently there were added 120 µl of an infectious solution of virus in Eagle's Basal Medium with 2% Hepes buffer, 2% FCS and 30 mM MgCl₂ to all wells except cell and compound controls. Said infectious virus solution has a TCID₅₀-value (Tissue Culture Infectious Dose) of about 100.
(§3) The TCID₅₀-value is the dose of viruses which initiates a cytopathic effect in 50% of the inoculated cells. 150 µl of the thus obtained virus-compound mixtures were then transferred to microtitre plates with subconfluent Ohio Hela Cells, grown in 100 µl of maintenance medium. Appropriate virus controls, cell controls and compound controls were included in each test. Plates were incubated for 3 to 5 days at 33°C in 5% CO₂ atmosphere. […] The IC₅₀-value for each virus-compound series was taken as the concentration in ng/ml that protected 50% of the cells from cytopathic effects with respect to the untreated controls. In the standard test procedure, the compounds were tested against two panels of rhinoviruses, a first panel consisting of serotypes HRV- 2,-29,-39,-85,-9,-15,-51, -59,-63,-89,-41 and the other panel consisting of HRV-42,-45,-14,-70,-72 and -86.
(§4) The IC₅₀-value for each rhinovirus serotype was determined, and the efficacy of each compound was determined in terms of the Med₁-value and Med₂-value, which is the medium value of the IC₅₀-value of all serotypes from the first and second panel respectively. The following table gives the testing results with the compounds of the invention.

[2] = test system: HRV-42,-45,-14,-70,-72 and -86; experiment: Picornavirus Minimal Inhibitory Concentration Test (cytopathic effect reduction assay), second panel of rhinoviruses; type: cell-based; conditions: Human rhinovirus sp., HRV42; medium value of the IC50-values of all serotypes of the second panel; Ohio Hela cells, 3 to 5 days at 33°C; concentration protecting 50% of the cells from cytopathic effects; read-out: Med₂
Method: as §1, §2, §3, §4

Work on `CCc1nc(-c2ccc(OCCC3CCN(c4ccc(C)nn4)C3)cc2)no1` (stereo not shown) [compound 46] yielded an IC50 [1] of 5 ng/mL (≈ 0.0132 µM) and an IC50 [2] of 0.04 µg/mL (≈ 0.105 µM).
Work on `CCc1nc(-c2ccc(OCCC3CCN(c4ccc(C)nn4)CC3)cc2)no1` [compound 6, 3-[4-[2-[4-(5-ethyl-1,2,4-oxadiazol-3-yl)phenoxy]ethyl]-1-piperidinyl]-6-methylpyridazine] yielded an IC50 [1] of 1.3 ng/mL (≈ 0.0033 µM) and an IC50 [2] of 0.047 µg/mL (≈ 0.119 µM).
For `CCc1nc(-c2ccc(OCCC3CCN(c4ccc(C)nn4)CC3)cc2)cs1` [compound 26], the IC50 [1] was 5 ng/mL (≈ 0.0122 µM) and the IC50 [2] was greater than 0.125 µg/mL.
In the case of `CCc1noc(-c2ccc(OCCC3CCN(c4ccc(C)nn4)CC3)cc2)n1` [compound 5, 3-[4-[2-[4-(3-ethyl-1,2,4-oxadiazol-5-yl)phenoxy]ethyl]-1-piperidinyl]-6-methylpyridazine], the IC50 [1] is reported as 2.9 ng/mL (≈ 0.00737 µM) and the IC50 [2] is reported as 0.098 µg/mL (≈ 0.249 µM).
`CCCCc1noc(-c2ccc(OCCC3CCN(c4ccc(C)nn4)CC3)cc2)n1` [compound 11] gave an IC50 [1] of 6 ng/mL (≈ 0.0142 µM) and an IC50 [2] of 0.175 µg/mL (≈ 0.415 µM).
Work on `CCCc1noc(-c2ccc(OCCC3CCN(c4ccc(C)nn4)CC3)cc2)n1` [compound 13] yielded an IC50 [1] of 6.8 ng/mL (≈ 0.0167 µM) and an IC50 [2] of 0.154 µg/mL (≈ 0.378 µM).
Work on `CCc1nc(-c2ccc(OCCC3CCN(c4ccc(C)nn4)CC3)cc2)co1` [compound 21, 3-[4-[2-[4-(2-ethyl-4-oxazolyl)phenoxy]ethyl]-1-piperidinyl]-6-methylpyridazine] yielded an IC50 [1] of less than 0.5 ng/mL and an IC50 [2] of 0.02 µg/mL (≈ 0.051 µM).
Molecule `CCc1csc(-c2ccc(OCCC3CCN(c4ccc(C)nn4)CC3)cc2)n1` [compound 22, 3-[4-[2-[4-(4-ethyl-2-thiazolyl)phenoxy]ethyl]-1-piperidinyl]-6-methylpyridazine] has an IC50 [1] of 1 ng/mL (≈ 0.00245 µM) and an IC50 [2] of 0.203 µg/mL (≈ 0.497 µM).
`Cc1ccc(N2CCC(CCOc3ccc(-c4nc(C)no4)cc3)CC2)nn1` [compound 9] showed an IC50 [1] of 4 ng/mL (≈ 0.0105 µM) and an IC50 [2] of 0.018 µg/mL (≈ 0.0474 µM).
With `Cc1ccc(N2CCC(CCOc3ccc(-c4noc(C)n4)cc3)CC2)nn1` [compound 25] the IC50 [1] was 8 ng/mL (≈ 0.0211 µM) and the IC50 [2] was 0.105 µg/mL (≈ 0.277 µM).
For `CCc1noc(-c2ccc(OCCC3CCN(c4ccc(C)nn4)C3)cc2)n1` (stereo not shown) [compound 45], the IC50 [1] was 6 ng/mL (≈ 0.0158 µM) and the IC50 [2] was 0.065 µg/mL (≈ 0.171 µM).
With `CCCc1nc(-c2ccc(OCCC3CCN(c4ccc(C)nn4)CC3)cc2)co1` [compound 36] the IC50 [1] was 7 ng/mL (≈ 0.0172 µM) and the IC50 [2] was greater than 0.125 µg/mL.
`CCc1nnc(-c2ccc(OCCC3CCN(c4ccc(C)nn4)CC3)cc2)o1` [compound 1] gave an IC50 [1] of 6 ng/mL (≈ 0.0152 µM) and an IC50 [2] of 0.044 µg/mL (≈ 0.112 µM).
For `CCc1noc(-c2ccc(OCCC3CCN(c4ccc(Cl)nn4)C3)cc2)n1` (stereo not shown) [compound 44], the IC50 [1] was 14 ng/mL (≈ 0.035 µM) and the IC50 [2] was 0.166 µg/mL (≈ 0.415 µM).
Work on `CCc1noc(-c2ccc(OCCN3CCN(c4ccc(Cl)nn4)CC3)cc2)n1` [compound 38] yielded an IC50 [1] of 2.4 ng/mL (≈ 0.00578 µM) and an IC50 [2] of 0.072 µg/mL (≈ 0.174 µM).
With `CCCc1nc(-c2ccc(OCCC3CCN(c4ccc(C)nn4)CC3)cc2)no1` [compound 27] the IC50 [1] was 6 ng/mL (≈ 0.0147 µM) and the IC50 [2] was 0.122 µg/mL (≈ 0.299 µM).
Molecule `CCc1noc(-c2ccc(OCC3CCN(c4ccc(C)nn4)CC3)cc2)n1` [compound 16] has an IC50 [1] of 2 ng/mL (≈ 0.00527 µM) and an IC50 [2] of 0.083 µg/mL (≈ 0.219 µM).
